Laboratory results as given in patent US20210101874A1, “MICROBIOCIDAL OXADIAZOLE DERIVATIVES” (SYNGENTA PARTICIPATIONS AG, priority 2017, published 2021).

Key:
[1] = test system: Puccinia recondita f. sp. Tritici; assay: Puccinia recondita f. sp. tritici / wheat / leaf disc preventative (brown rust); format: in vivo; settings: foliar, 200 ppm in the applied formulation, wheat leaf segments cv. Kanzler, inoculated 1 day after application, compared to untreated, assessed 7 to 9 days after application, read-out: disease control
Outline: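 Wheat cv. Kanzler leaf segments on agar sprayed with diluted compound, inoculated with brown rust spores 1 day later. Kept at 19° C., 75% rh, 12 h light/dark; percent disease control versus untreated segments scored 7 to 9 days after application, compounds tested at 200 ppm.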

[2] = test system: Puccinia recondita f. sp. Tritici; assay: Puccinia recondita f. sp. tritici / wheat / leaf disc curative (brown rust); format: in vivo; settings: foliar, 200 ppm in the applied formulation, wheat leaf segments cv. Kanzler, applied 1 day after inoculation, compared to untreated, assessed 6 to 8 days after application, read-out: disease control
Description: Leaf disks or leaf segments of various plant species are cut from plants grown in a greenhouse. The cut leaf disks or segments are placed in multiwell plates (24-well format) onto water agar. The leaf disks are sprayed with a test solution before (preventative) or after (curative) inoculation. Compounds to be tested are prepared as DMSO solutions (max. 10 mg/ml) which are diluted to the appropriate concentration with 0.025% Tween20 just before spraying. The inoculated leaf disks or segments are incubated under defined conditions (temperature, relative humidity, light, etc.) according to the respective test system. A single evaluation of disease level is carried out 3 to 14 days after inoculation, depending on the pathosystem. Percent disease control relative to the untreated check leaf disks or segments is then calculated.
Wheat leaf segments cv. Kanzler are placed on agar in multiwell plates (24-well format). The leaf segments are then inoculated with a spore suspension of the fungus. Plates were stored in darkness at 19° C. and 75% relative humidity. The formulated test compound diluted in water was applied 1 day after inoculation. The leaf segments were incubated at 19° C. and 75% relative humidity under a light regime of 12 hours light/12 hours darkness in a climate cabinet and the activity of a compound was assessed as percent disease control compared to untreated when an appropriate level of disease damage appears in untreated check leaf segments (6 to 8 days after application).
The following compounds at 200 ppm in the applied formulation give at least 80% disease control in this test when compared to untreated control leaf disks under the same conditions, which show extensive disease development.

[3] = test system: Glomerella lagenarium (Colletotrichum lagenarium); assay: Glomerella lagenarium (Colletotrichum lagenarium) liquid culture / cucumber / preventative (anthracnose); format: cell-based; settings: Colletotrichum orbiculare; 20 ppm in the applied formulation; conidia in PDB nutrient broth, 24° C.; 3 to 4 days after application; compared to untreated; read-out: disease control (inhibition of growth measured photometrically)
Outline: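 Cryostored conidia in potato dextrose broth added to compound diluted from DMSO solution, 96-well format. Plates incubated at 24 °C. Growth inhibition read photometrically 3 to 4 days after application, as percent activity versus untreated check.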

CNS(=O)(=O)N(C)Cc1ccc(-c2noc(C(F)(F)F)n2)cc1 [Compound 1.56, 3-[4-[[methyl (methylsulfamoyl)amino]methyl]phenyl]-5-(trifluoromethyl)-1,2,4-oxadiazole]
≥ 80%: pest or weed control at 200 ppm [1] | pest or weed control at 200 ppm [2] | inhibition at 20 ppm [3]

CCN(Cc1ccc(-c2noc(C(F)(F)F)n2)cc1)S(=O)(=O)CC(=O)OC [Compound 1.59, methyl 2-[ethyl-[[4-[5-(trifluoromethyl)-1,2,4-oxadiazol-3-yl]phenyl]methyl]sulfamoyl]acetate]
≥ 80%: pest or weed control at 200 ppm [1] | pest or weed control at 200 ppm [2] | inhibition at 20 ppm [3]

CCN(Cc1ccc(-c2noc(C(F)(F)F)n2)cc1)S(=O)(=O)CC [Compound 1.61, N-ethyl-N-[[4-[5-(trifluoromethyl)-1,2,4-oxadiazol-3-yl]phenyl]methyl] ethanesulfonamide]
≥ 80%: pest or weed control at 200 ppm [1] | pest or weed control at 200 ppm [2] | inhibition at 20 ppm [3]

CCN(Cc1ccc(-c2noc(C(F)(F)F)n2)cc1)S(C)(=O)=O [Compound 1.62, N-ethyl-N-[[4-[5-(trifluoromethyl)-1,2,4-oxadiazol-3-yl]phenyl]methyl] methanesulfonamide]
≥ 80%: pest or weed control at 200 ppm [1] | pest or weed control at 200 ppm [2] | inhibition at 20 ppm [3]

CCN(Cc1ccc(-c2noc(C(F)(F)F)n2)cc1)S(=O)(=O)NC [Compound 1.63, 3-[4-[[ethyl (methylsulfamoyl)amino]methyl]phenyl]-5-(trifluoromethyl)-1,2,4-oxadiazole]
≥ 80%: pest or weed control at 200 ppm [1] | pest or weed control at 200 ppm [2] | inhibition at 20 ppm [3]

CCN(Cc1ccc(-c2noc(C(F)(F)F)n2)cc1)S(=O)(=O)N(C)C [Compound 1.64, N-(dimethylsulfamoyl)-N-[[4-[5-(trifluoromethyl)-1,2,4-oxadiazol-3-yl]phenyl]methyl] ethanamine]
≥ 80%: pest or weed control at 200 ppm [1] | pest or weed control at 200 ppm [2] | inhibition at 20 ppm [3]

CCCN(Cc1ccc(-c2noc(C(F)(F)F)n2)cc1)S(=O)(=O)C1CC1 [Compound 1.69, N-propyl-N-[[4-[5-(trifluoromethyl)-1,2,4-oxadiazol-3-yl]phenyl]methyl] cyclopropanesulfonamide]
≥ 80%: pest or weed control at 200 ppm [1] | pest or weed control at 200 ppm [2] | inhibition at 20 ppm [3]

CCCN(Cc1ccc(-c2noc(C(F)(F)F)n2)cc1)S(=O)(=O)CCOC [Compound 1.73, 2-methoxy-N-propyl-N-[[4-[5-(trifluoromethyl)-1,2,4-oxadiazol-3-yl]phenyl]methyl] ethanesulfonamide]
≥ 80%: pest or weed control at 200 ppm [1] | pest or weed control at 200 ppm [2] | inhibition at 20 ppm [3]

CCCN(Cc1ccc(-c2noc(C(F)(F)F)n2)cc1)S(=O)(=O)CC(=O)OC [Compound 1.76, methyl 2-[propyl-[[4-[5-(trifluoromethyl)-1,2,4-oxadiazol-3-yl]phenyl]methyl]sulfamoyl]acetate]
≥ 80%: pest or weed control at 200 ppm [1] | pest or weed control at 200 ppm [2] | inhibition at 20 ppm [3]

CCCN(Cc1ccc(-c2noc(C(F)(F)F)n2)cc1)S(C)(=O)=O [Compound 1.79, N-propyl-N-[[4-[5-(trifluoromethyl)-1,2,4-oxadiazol-3-yl]phenyl]methyl] methanesulfonamide]
≥ 80%: pest or weed control at 200 ppm [1] | pest or weed control at 200 ppm [2] | inhibition at 20 ppm [3]

CC(C)N(Cc1ccc(-c2noc(C(F)(F)F)n2)cc1)S(=O)(=O)c1ccn(C)n1 [Compound 1.82, N-isopropyl-1-methyl-N-[[4-[5-(trifluoromethyl)-1,2,4-oxadiazol-3-yl]phenyl]methyl] pyrazole-3-sulfonamide]
≥ 80%: pest or weed control at 200 ppm [1] | pest or weed control at 200 ppm [2] | inhibition at 20 ppm [3]

COCCS(=O)(=O)N(Cc1ccc(-c2noc(C(F)(F)F)n2)cc1)C(C)C [Compound 1.83, N-isopropyl-2-methoxy-N-[[4-[5-(trifluoromethyl)-1,2,4-oxadiazol-3-yl]phenyl]methyl] ethanesulfonamide]
≥ 80%: pest or weed control at 200 ppm [1] | pest or weed control at 200 ppm [2] | inhibition at 20 ppm [3]
